Converted amounts (≈) assume the structure as drawn. Where a name gives a salt, the structure may show the parent alone. Read-outs that look alike come from different tables or passages of the source.
Columns and labels:
MRSA ATCC BAA-44 [1] = assay: Minimal inhibitory concentration (MIC), standard broth microdilution; format: cell-based, Staphylococcus aureus; conditions: for MIC: MRSA BAA-44 strain
Protocol: (§1) RMA activity of the analogues was tested by assessing their abilities to sensitize MRSA to the antibiotic cefazolin (a first-generation cephalosporin). The well characterized strain MRSA ATCC BAA-44 was tested as previously described. […] The minimal inhibitory concentration (MIC), or the lowest concentration at which S. aureus is considered susceptible to an antibacterial, was determined by the standard broth microdilution method detailed in the CLSI handbook. RMA activity was compared by the ratio of MIC/MRC. The half growth inhibitory concentration (GI50) of each analogue against HeLa cells was determined as previously described. […] The luminescence of each sample was recorded in an Envision Multilabel Plate Reader (Perkin Elmer). Results of MICs and MRCs were confirmed by testing in triplicate. The GI50 assay was performed in duplicate.

HeLa cells = assay: GI50 against HeLa cells, Cell Titer Glo viability assay; format: cell-based, human; conditions: for GI50: 24 h
Protocol: as §1

MRSA ATCC BAA-44 [2] = assay: Minimum re-sensitizing concentration (MRC) in the presence of cefazolin; format: cell-based, Staphylococcus aureus; conditions: MRSA BAA-44, cefazolin
Protocol: as §1

MRSA-252 = assay: MIC, scope of antibacterial activity; format: cell-based, S. aureus; conditions: Staphylococcus aureus
Protocol: as §1
(§2) Furthermore, we explored the scope of the antibacterial activity of 12g in a panel of MRSA and MSSA strains including BAA-44 (MIC=1 μg/mL), MRSA-252 (MIC=2 μg/mL), B. subtilis NR-607 (MIC=2 μg/mL), E. faecium HM-460 (MIC=4 μg/mL), E. faecium 28977 (MIC=2 μg/mL) and MSSA (MIC=0.5 μg/mL).

MSSA = assay: MIC, scope of antibacterial activity; format: cell-based, S. aureus; conditions: Staphylococcus aureus
Protocol: as §1, §2

[3] = GI50 against HeLa cells, Cell Titer Glo viability assay; format: cell-based, human; conditions: human, HeLa cells, 24 h
Protocol: as §1

E. faecium HM-460 = assay: MIC, scope of antibacterial activity; format: cell-based; conditions: Enterococcus faecium, HM460
Protocol: as §1, §2

E. faecium 28977 = assay: MIC, scope of antibacterial activity; format: cell-based; conditions: Enterococcus faecium
Protocol: as §1, §2

B. subtilis NR-607 = assay: MIC, scope of antibacterial activity; format: cell-based; conditions: Bacillus subtilis, NR607
Protocol: as §1, §2

multiple MRSA strains = assay: RMA activity in multiple MRSA strains with cephalosporins; format: cell-based, S. aureus
Protocol: as §1
We next explored the scope of RMA activity of 4ad in different MRSA strains, including MRSA BAA-1683, MRSA BAA-1764, MRSA NR-46411, NRS-384 and NRS-100. These strains were selected because of their diverse geographical origins, genetic background, and resistance profile. We also tested RMA activity in combination with another commercial antibiotic, cefuroxime, which is a second-generation cephalosporin. MRCs in the presence of cefuroxime were determined using the same method as those for cefazolin.

[4] = Staphylococcus aureus, read-out: MIC

| SMILES | MIC (MRSA ATCC BAA-44 [1]; [4]) [µg/mL] | GI50 (HeLa cells) [µg/mL] | RMA activity (in words) (MRSA ATCC BAA-44 [2]) | further results |
| --- | --- | --- | --- | --- |
| COC(=O)C1CN(c2nc3ccc(Cl)cc3s2)Cc2[nH]c3ccc(Cl)cc3c21 (racemic) [Compound 4n, Methyl 6-chloro-2-(6-chlorobenzo[d]thiazol-2-yl)-2,3,4,9-tetrahydro-1H-pyrido[3,4-b]indole-4-carboxylate] | > 32 | 6.6 (≈ 15.3 µM) | without compromising the RMA activity | RMA activity (ratio of MIC/MRC) (MRSA ATCC BAA-44 [2]): 32 fold |
| O=C(O)C1CN(c2nc3ccc(Cl)cc3s2)Cc2[nH]c3ccc(Cl)cc3c21 (racemic) [Compound 8, 6-Chloro-2-(6-chlorobenzo[d]thiazol-2-yl)-2,3,4,9-tetrahydro-1H-pyrido[3,4-b]indole-4-carboxylic acid] | 32 (≈ 76.5 µM) | 65 (≈ 155 µM) | significantly decreased or abolished the RMA activity |  |
| CN(C)C(=O)C1CN(c2nc3ccc(Cl)cc3s2)Cc2[nH]c3ccc(Cl)cc3c21 (racemic) [Compound 9, 6-Chloro-2-(6-chlorobenzo[d]thiazol-2-yl)-N,N-dimethyl-2,3,4,9-tetrahydro-1H-pyrido[3,4-b]indole-4-carboxamide] |  |  | significantly decreased or abolished the RMA activity |  |
| N=C(N)NCC1CN(c2nc3ccc(Cl)cc3s2)Cc2[nH]c3ccc(Cl)cc3c21 (racemic) [Compound 12g, 1-((6-chloro-2-(6-chlorobenzo[d]thiazol-2-yl)-2,3,4,9-tetrahydro-1H-pyrido[3,4-b]indol-4-yl)methyl)guanidine hydrochloride] |  |  |  | MIC (MRSA ATCC BAA-44 [1]; hydrochloride): 1 µg/mL; MIC (MRSA ATCC BAA-44 [1]; Staphylococcus aureus): 2 µg/mL; MIC (MRSA-252): 2 µg/mL; MIC (MSSA): 0.5 µg/mL; GI50 at 24 h [3]: 14.1 µg/mL; MIC (E. faecium HM-460): 4 µg/mL; MIC (E. faecium 28977): 2 µg/mL; MIC (B. subtilis NR-607): 2 µg/mL |
| Clc1ccc2nc(N3CCc4c([nH]c5ccc(Cl)cc45)C3)sc2c1 [Compound 4a, 6-Chloro-2-(6-chloro-1,3-benzothiazol-2-yl)-2,3,4,9-tetrahydro-1H-pyrido[3,4-b]indole] | > 64 | 13.2 (≈ 35.3 µM) |  | RMA activity (ratio of MIC/MRC) (MRSA ATCC BAA-44 [2]): 32 fold |
| Nc1cc(Cl)c2nc(N3CCc4c([nH]c5ccc(Cl)cc45)C3)sc2c1 [Compound 4ad, 4-Chloro-2-(6-chloro-1,3,4,9-tetrahydro-2H-pyrido[3,4-b]indol-2-yl)-1,3-benzothiazol-6-amine] |  | > 100 | good RMA activities | MIC (MRSA ATCC BAA-44 [1]): >32 µg/mL; potentiation of antibiotics (in words) (multiple MRSA strains; five MRSA strains, cefazolin and cefuroxime): potentiates both antibiotic cefazolin and cefuroxime; concentration that re-sensitizes multiple MRSA strains to cephalosporins (multiple MRSA strains; multiple MRSA strains, cephalosporins): 2 µg/mL |
| FC(F)(F)c1cccc2sc(N3CCc4c([nH]c5ccc(Cl)cc45)C3)nc12 [Compound 4af, 6-Chloro-2-[4-(trifluoromethyl)-1,3-benzothiazol-2-yl]-2,3,4,9-tetrahydro-1H-pyrido[3,4-b]indole] | > 32 | 8 (≈ 19.6 µM) | good RMA activities | worse GI50 relative to 4w (HeLa cells): 3 fold |
| CNc1cc(C(F)(F)F)c2nc(N3CCc4c([nH]c5ccc(Cl)cc45)C3)sc2c1 [Compound 4ai, 2-(6-Chloro-1,3,4,9-tetrahydro-2H-pyrido[3,4-b]indol-2-yl)-N-methyl-4-(trifluoromethyl)-1,3-benzothiazol-6-amine] | > 32 | 15.4 (≈ 35.2 µM) | good RMA activities |  |
| Clc1ccc2[nH]c3c(c2c1)CCN(c1nc2ccccc2s1)C3 [Compound 4b, 2-(1,3-Benzothiazol-2-yl)-6-chloro-2,3,4,9-tetrahydro-1H-pyrido[3,4-b]indole] |  |  | no RMA activity |  |
| Cc1ccc2nc(N3CCc4c([nH]c5ccc(Cl)cc45)C3)sc2c1 [Compound 4c, 6-Chloro-2-(6-methyl-1,3-benzothiazol-2-yl)-2,3,4,9-tetrahydro-1H-pyrido[3,4-b]indole] |  |  | no RMA activity |  |
| Clc1ccc2[nH]c3c(c2c1)CCN(c1nc2ncccc2s1)C3 [Compound 4d, 6-Chloro-2-([1,3]thiazolo[4,5-b]pyridin-2-yl)-2,3,4,9-tetrahydro-1H-pyrido[3,4-b]indole] |  |  | abolished |  |
| FC(F)(F)c1cnc2nc(N3CCc4c([nH]c5ccc(Cl)cc45)C3)sc2c1 [Compound 4e, 6-Chloro-2-[6-(trifluoromethyl)[1,3]thiazolo[4,5-b]pyridin-2-yl]-2,3,4,9-tetrahydro-1H-pyrido[3,4-b]indole] |  |  | abolished |  |
| CCOC(=O)C1c2[nH]c3ccc(Cl)cc3c2CCN1c1nc2ccc(Cl)cc2s1 (centres unmarked) [Compound 4l, Ethyl 6-chloro-2-(6-chloro-1,3-benzothiazol-2-yl)-2,3,4,9-tetrahydro-1H-pyrido[3,4-b]indole-1-carboxylate] |  |  | abolished |  |
| COC(=O)C1Cc2c([nH]c3ccc(Cl)cc23)CN1c1nc2ccc(Cl)cc2s1 (centres unmarked) [Compound 4m, Methyl 6-chloro-2-(6-chloro-1,3-benzothiazol-2-yl)-2,3,4,9-tetrahydro-1H-pyrido[3,4-b]indole-3-carboxylate] | > 64 |  | abolished |  |
| CCn1c2c(c3cc(Cl)ccc31)CCN(c1nc3ccc(Cl)cc3s1)C2 [Compound 4o, 6-Chloro-2-(6-chloro-1,3-benzothiazol-2-yl)-9-ethyl-2,3,4,9-tetrahydro-1H-pyrido[3,4-b]indole] |  |  | abolished |  |
| Clc1ccc2[nH]c3c(c2c1)CCN(c1nc2ccc(Br)cc2s1)C3 [Compound 4p, 2-(6-Bromo-1,3-benzothiazol-2-yl)-6-chloro-2,3,4,9-tetrahydro-1H-pyrido[3,4-b]indole] | > 64 | 5.1 (≈ 12.2 µM) | retained the RMA activity |  |
| FC(F)(F)c1ccc2nc(N3CCc4c([nH]c5ccc(Cl)cc45)C3)sc2c1 [Compound 4s, 6-Chloro-2-[6-(trifluoromethyl)-1,3-benzothiazol-2-yl]-2,3,4,9-tetrahydro-1H-pyrido[3,4-b]indole] | > 64 | 4.6 (≈ 11.3 µM) |  | increase of RMA activity relative to 4a (MRSA ATCC BAA-44 [2]): 4 fold |
| FC(F)(F)Oc1ccc2nc(N3CCc4c([nH]c5ccc(Cl)cc45)C3)sc2c1 [Compound 4t, 6-Chloro-2-[6-(trifluoromethoxy)-1,3-benzothiazol-2-yl]-2,3,4,9-tetrahydro-1H-pyrido[3,4-b]indole] |  | 7.3 (≈ 17.2 µM) | lost the RMA activity completely | MIC (MRSA ATCC BAA-44 [1]): 1 µg/mL (≈ 2.36 µM) |
| Clc1ccc2[nH]c3c(c2c1)CCN(c1nc2cccc(Cl)c2s1)C3 [Compound 4u, 6-Chloro-2-(7-chloro-1,3-benzothiazol-2-yl)-2,3,4,9-tetrahydro-1H-pyrido[3,4-b]indole] | 4 (≈ 10.7 µM) | 6.7 (≈ 17.9 µM) | reduced RMA activity | MIC (in words) (MRSA ATCC BAA-44 [1]; MRSA BAA-44): increased MIC |
| Clc1ccc2sc(N3CCc4c([nH]c5ccc(Cl)cc45)C3)nc2c1 [Compound 4v, 6-Chloro-2-(5-chloro-1,3-benzothiazol-2-yl)-2,3,4,9-tetrahydro-1H-pyrido[3,4-b]indole] |  |  | no RMA activity |  |
| Clc1ccc2[nH]c3c(c2c1)CCN(c1nc2c(Cl)cccc2s1)C3 [Compound 4w, 6-Chloro-2-(4-chloro-1,3-benzothiazol-2-yl)-2,3,4,9-tetrahydro-1H-pyrido[3,4-b]indole] | > 64 | 27.7 (≈ 74 µM) | maintained similar RMA activity |  |

— US20220402914A1, “Tryptoline-Based Benzothiazoles and their use as Antibiotics and Antibiotic Resistance-Modifying Agents” (The Regents of the University of Colorado, a body corporate, priority 2019, published 2022)
